# From US20260028336A1 (Arcus Biosciences, Inc., priority 2022, published 2026)
# Key:
# Cbl-b = biological target: T1, Cbl-b (Homo sapiens, UniProt Q13191); assay: Cbl-b probe displacement HTRF binding assay; conditions: 0.4 nM biotinylated Cbl-b, 150 nM BODIPY probe
# T1 construct: biotin (biotinylated)
# Summary of the method: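 Biotinylated Cbl-b was preincubated with compound for 60 min at room temperature in HEPES/NaCl/Triton/TCEP/BSA buffer. BODIPY probe was added for 15 min, followed by streptavidin-terbium, and the HTRF signal was read. Displacement was normalised to DMSO and no-protein controls, and affinity was obtained from a four-parameter dose-response fit.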
# Jurkat cells = assay: IL-2 secretion assay in CD3/CD28-activated Jurkat cells (AlphaLISA); assay type: cell-based; conditions: Homo sapiens, CD3/CD28 T Cell Activator, 24 h, IL-2 AlphaLISA
# Protocol: Certain compounds were also evaluated in an IL-2 secretion assay. On the day of the assay, a 16 point, 1:2 master serial dilution of each compound was prepared in Opti-MEM to span a final concentration range of 10 μM to 300 pM. Assays were set up in CORNING® tissue culture-treated 384-well microplates containing 60 nL of each dilution. […] 50,000 cells/well and added to the compound plates. After a short spin (1200 rpm for 1 min), the plates were incubated at 37° C. for 1 hour. The cells were activated by adding 15 μL of IMMUNOCULT™ Human CD3/CD28 T Cell Activator ([…] Technologies) diluted in Opti-MEM. […] The AiphaLISA signal was measured using an EnVision plate reader (PerkinElmer). EC50 values were determined by fitting the data to a standard 4-parameter logistic equation.
# T1 sequence (Q13191 whole entry, species assumed): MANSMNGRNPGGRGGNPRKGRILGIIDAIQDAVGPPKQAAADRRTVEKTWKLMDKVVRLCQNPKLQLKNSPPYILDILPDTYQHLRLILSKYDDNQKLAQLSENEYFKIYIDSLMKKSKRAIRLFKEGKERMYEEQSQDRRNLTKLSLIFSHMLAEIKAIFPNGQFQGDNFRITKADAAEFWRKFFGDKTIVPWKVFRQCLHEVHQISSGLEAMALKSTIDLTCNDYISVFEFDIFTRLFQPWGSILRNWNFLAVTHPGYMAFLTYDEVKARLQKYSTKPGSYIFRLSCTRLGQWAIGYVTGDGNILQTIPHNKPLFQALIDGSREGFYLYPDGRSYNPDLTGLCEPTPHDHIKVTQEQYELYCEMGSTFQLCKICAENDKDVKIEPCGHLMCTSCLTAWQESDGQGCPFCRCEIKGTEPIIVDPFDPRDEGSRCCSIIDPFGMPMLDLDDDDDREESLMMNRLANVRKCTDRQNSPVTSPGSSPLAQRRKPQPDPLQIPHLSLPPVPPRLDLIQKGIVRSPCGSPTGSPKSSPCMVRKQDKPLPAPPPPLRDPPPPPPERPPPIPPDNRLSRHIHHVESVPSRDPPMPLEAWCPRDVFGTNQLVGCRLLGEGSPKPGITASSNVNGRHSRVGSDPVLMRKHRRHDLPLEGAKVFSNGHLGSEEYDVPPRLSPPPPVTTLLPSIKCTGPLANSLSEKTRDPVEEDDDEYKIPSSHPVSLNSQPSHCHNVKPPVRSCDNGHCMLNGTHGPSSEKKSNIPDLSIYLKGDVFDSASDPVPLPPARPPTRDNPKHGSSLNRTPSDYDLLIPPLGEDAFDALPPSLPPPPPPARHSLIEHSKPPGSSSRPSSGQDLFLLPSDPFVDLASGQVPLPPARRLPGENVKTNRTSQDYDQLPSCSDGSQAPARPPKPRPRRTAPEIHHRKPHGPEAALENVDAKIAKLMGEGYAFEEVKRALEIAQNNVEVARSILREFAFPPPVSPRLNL
SMILES,IC50 (Cbl-b) [nM],EC50 (Jurkat cells) [nM]
"C[C@@H]1CN(Cc2cc3c(C4CC4)cn(-c4cccc(C5(c6nncn6C)CC6(CC6)C5)c4)c(=O)c3[nH]2)CCO1 [Example 71, 4-cyclopropyl-2-[[(2R)-2-methylmorpholin-4-yl]methyl]-6-[3-[5-(4-methyl-1,2,4-triazol-3-yl)spiro[2.3]hexan-5-yl]phenyl]-1H-pyrrolo[2,3-c]pyridin-7-one]",< 100,100 to 1000
"C[C@H]1CCCN(Cc2cc3c(C4CC4)cn(-c4cccc(C5(c6nncn6CC(F)F)CC6(CC6)C5)c4)c(=O)c3[nH]2)C1 [Example 146, 4-Cyclopropyl-6-[3-[5-[4-(2,2-difluoroethyl)-1,2,4-triazol-3-yl]spiro[2.3]hexan-5-yl]phenyl]-2-[[(3S)-3-methylpiperidin-1-yl]methyl]-1H-pyrrolo[2,3-c]pyridin-7-one]",< 100,100 to 1000
"C[C@H]1CCCN(Cc2nc3c(C(F)(F)F)cn(-c4cccc(C5(c6nncn6C)CC(F)(F)C5)c4)c(=O)c3[nH]2)C1 [Example 113, 5-[3-[3,3-difluoro-1-(4-methyl-1,2,4-triazol-3-yl)cyclobutyl]phenyl]-2-[[(3S)-3-methylpiperidin-1-yl]methyl]-7-(trifluoromethyl)-3H-imidazo[4,5-c]pyridin-4-one]",< 100,< 100
"CC1CC(c2cccc(-n3cc(C4CC4)c4cc(CN5C[C@@H](F)C[C@H](F)C5)[nH]c4c3=O)c2)(c2nncn2C)C1 (stereo partly drawn) [Example 65, 4-cyclopropyl-2-{[(3S,5S)-3,5-difluoropiperidin-1-yl]methyl}-6-{3-[(1r,3s)-3-methyl-1-(4-methyl-4H-1,2,4-triazol-3-yl)cyclobutyl]phenyl}-1H,6H,7H-pyrrolo[2,3-c]pyridin-7-one]",< 100,1000 to 5000
CO[C@H]1C[C@](c2cccc(-n3cc(C4CC4)c4cc(CN5CCC6(CC6)C5)[nH]c4c3=O)c2)(c2nncn2C)C1 [Example 100],< 100,100 to 1000
"CC1CC(c2cccc(-n3cc(C4CC4)c4cc(CN5CCC6(CC5)CC6)[nH]c4c3=O)c2)(c2nncn2C)C1 (stereo not drawn) [Example 50, 2-({6-azaspiro[2.5]octan-6-yl}methyl)-4-cyclopropyl-6-{3-[3-methyl-1-(4-methyl-4H-1,2,4-triazol-3-yl)cyclobutyl]phenyl}-1H,6H,7H-pyrrolo[2,3-c]pyridin-7-one]",< 100,< 100
"C[C@H]1CCCN(Cc2cc3c(C4CC4)cn(-c4cccc(C5(Cn6nccn6)CC(F)(F)C5)c4)c(=O)c3[nH]2)C1 [Example 122, 4-cyclopropyl-6-[3-[3,3-difluoro-1-(triazol-2-ylmethyl)cyclobutyl]phenyl]-2-[[(3S)-3-methylpiperidin-1-yl]methyl]-1H-pyrrolo[2,3-c]pyridin-7-one]",100 to 1000,100 to 1000
"CC1CC(c2cccc(-n3cc(C4CC4)c4cc(CN5CCCC(F)(F)C5)[nH]c4c3=O)c2)(c2nncn2C)C1 (stereo not drawn) [Example 66, 4-cyclopropyl-2-[(3,3-difluoropiperidin-1-yl)methyl]-6-{3-[(1r)-3-methyl-1-(4-methyl-4H-1,2,4-triazol-3-yl)cyclobutyl]phenyl}-1H,6H,7H-pyrrolo[2,3-c]pyridin-7-one]",100 to 1000,1000 to 5000
"CC(c1cccc(-n2cc(C3CC3)c3cc(CN4CCC[C@H](C)C4)[nH]c3c2=O)c1)c1nncn1C (stereo partly drawn) [Example 165, 4-cyclopropyl-2-[[(3S)-3-methylpiperidin-1-yl]methyl]-6-[3-[1-(4-methyl-1,2,4-triazol-3-yl)ethyl]phenyl]-1H-pyrrolo[2,3-c]pyridin-7-one]",< 100,< 100
"Cn1cnnc1[C@]1(c2cccc(-n3cc(C4CC4)c4cn[nH]c4c3=O)c2)C[C@H](C)C1 [Example 7, 4-cyclopropyl-6-{3-[(1r,3s)-3-methyl-1-(4-methyl-4H-1,2,4-triazol-3-yl)cyclobutyl]phenyl}-1H,6H,7H-pyrazolo[3,4-c]pyridin-7-one]",< 100,1000 to 5000
"CC1CC(c2cccc(-n3cc(C4CC4)c4cc(CN5CCCC[C@@H]5C)[nH]c4c3=O)c2)(c2nncn2C)C1 (stereo partly drawn) [Example 43, 4-cyclopropyl-6-{3-[3-methyl-1-(4-methyl-4H-1,2,4-triazol-3-yl)cyclobutyl]phenyl}-2-{[(2S′)-2-methylpiperidin-1-yl]methyl}-1H,6H,7H-pyrrolo[2,3-c]pyridin-7-one]",< 100,< 100
"CO[C@H]1C[C@@](c2cccc(-n3cc(C4CC4)c4cc(CN5CCC[C@H](C)C5)[nH]c4c3=O)c2)(c2nncn2C)C1 [Example 102, cis-4-cyclopropyl-6-[3-[3-methoxy-1-(4-methyl-1,2,4-triazol-3-yl)cyclobutyl]phenyl]-2-[[(3S)-3-methylpiperidin-1-yl]methyl]-1H-pyrrolo[2,3-c]pyridin-7-one]",< 100,< 100
C[C@H]1CCCN(Cc2cc3c(C4CC4)cn(-c4cccc(C(O)(c5nncn5C)C(F)(F)F)c4)c(=O)c3[nH]2)C1 (stereo partly drawn) [Example 156],< 100,100 to 1000
"C[C@H]1CCCN(Cc2cc3c(C4CC4)cn(-c4cccc([C@]5(c6nncn6C)C[C@@H](OC(F)F)C5)c4)c(=O)c3[nH]2)C1 [Example 96, cis-4-cyclopropyl-6-[3-[3-(difluoromethoxy)-1-(4-methyl-1,2,4-triazol-3-yl)cyclobutyl]phenyl]-2-[[(3S)-3-methylpiperidin-1-yl]methyl]-1H-pyrrolo[2,3-c]pyridin-7-one]",< 100,< 100
"Cn1cnnc1C1(c2cccc(-n3cc(C4CC4)c4cc(CN[C@@H]5CCCS(=O)(=O)C5)[nH]c4c3=O)c2)CC(F)(F)C1 [Example 87, (3R)-3-{[(4-cyclopropyl-6-{3-[3,3-difluoro-1-(4-methyl-4H-1,2,4-triazol-3-yl)cyclobutyl]phenyl}-7-oxo-1H,6H,7H-pyrrolo[2,3-c]pyridin-2-yl)methyl]amino}-1λ^6-thiane-1,1-dione]",100 to 1000,> 5000
"C[C@H]1CCCN(Cc2nc3c(C4CC4)cn(-c4cccc([C@]5(c6nncn6C)C[C@H](C)C5)c4)c(=O)c3[nH]2)C1 [Example 109, 7-cyclopropyl-5-[3-[3-methyl-1-(4-methyl-1,2,4-triazol-3-yl)cyclobutyl]phenyl]-2-[[(3S)-3-methylpiperidin-1-yl]methyl]-3H-imidazo[4,5-c]pyridin-4-one]",< 100,< 100
"CC1CC(c2cccc(-n3cc(C4CC4)c4cc(CN5CCO[C@H](C)C5)[nH]c4c3=O)c2)(c2nncn2C)C1 (stereo partly drawn) [Example 45, 4-cyclopropyl-6-{3-[3-methyl-1-(4-methyl-4H-1,2,4-triazol-3-yl)cyclobutyl]phenyl}-2-{[(2R)-2-methylmorpholin-4-yl]methyl}-1H,6H,7H-pyrrolo[2,3-c]pyridin-7-one]",< 100,< 100
"CC1CC(c2cccc(-n3cc(C4CC4)c4cc(CNC5(C(F)(F)F)CC5)[nH]c4c3=O)c2)(c2nncn2C)C1 (stereo not drawn) [Example 41, 4-cyclopropyl-6-{3-[(1r,3s)-3-methyl-1-(4-methyl-4H-1,2,4-triazol-3-yl)cyclobutyl]phenyl}-2-({[1-(trifluoromethyl)cyclopropyl]amino}methyl)-1H,6H,7H-pyrrolo[2,3-c]pyridin-7-one]",100 to 1000,1000 to 5000
"C[C@H]1CCCN(Cc2cc3c(C4CC4)cn(-c4cccc(C5(c6nncn6C)CC6(CC6)C5)c4)c(=O)c3[nH]2)C1 [Example 74, 4-cyclopropyl-2-[[(3S)-3-methylpiperidin-1-yl]methyl]-6-[3-[5-(4-methyl-1,2,4-triazol-3-yl)spiro[2.3]hexan-5-yl]phenyl]-1H-pyrrolo[2,3-c]pyridin-7-one]",< 100,< 100
"Cn1cnnc1[C@]1(c2cccc(-n3cc(C(F)(F)F)c4cc[nH]c4c3=O)c2)C[C@@H](C)C1 (single isomer, unassigned) [Example 37]",< 100,100 to 1000
"CC1CC(c2cccc(-n3cc(C4CC4)c4cc[nH]c4c3=O)c2)(c2nncn2C)C1 (stereo not drawn) [Example 4, 4-cyclopropyl-6-[3-[3-methyl-1-(4-methyl-1,2,4-triazol-3-yl)cyclobutyl]phenyl]-1H-pyrrolo[2,3-c]pyridin-7-one]",100 to 1000,1000 to 5000
"Cn1cnnc1[C@]1(c2cccc(-n3cc(C#N)c4cc[nH]c4c3=O)c2)C[C@H](C)C1 [Example 38, 7-oxo-6-{3-[(1r,3s)-3-methyl-1-(4-methyl-4H-1,2,4-triazol-3-yl)cyclobutyl]phenyl}-1H,6H,7H-pyrrolo[2,3-c]pyridine-4-carbonitrile]",< 100,1000 to 5000
"CC1CC(c2cccc(-n3cc(C4CC4)c4cc(CN5C[C@H]6C[C@@H]5CO6)[nH]c4c3=O)c2)(c2nncn2C)C1 (stereo partly drawn) [Example 51, 4-cyclopropyl-6-{3-[3-methyl-1-(4-methyl-4H-1,2,4-triazol-3-yl)cyclobutyl]phenyl}-2-{[(1R,4R)-2-oxa-5-azabicyclo[2.2.1]heptan-5-yl]methyl}-1H,6H,7H-pyrrolo[2,3-c]pyridin-7-one]",< 100,100 to 1000
"C[C@H]1CCCN(Cc2cc3c(S(C)(=O)=O)cn(-c4cccc([C@]5(c6nncn6C)C[C@@H](C)C5)c4)c(=O)c3[nH]2)C1 (single isomer, unassigned) [Example 107]",< 100,< 100
